Test [1] deals with T1, recombinant Axl tyrosine kinase (Homo sapiens, UniProt P30530).
T1 construct: encompassing amino acids 473 to 894 of Axl; GST (N); made in house; host or cells: SF126 insect cells
T1 sequence (P30530 473-894): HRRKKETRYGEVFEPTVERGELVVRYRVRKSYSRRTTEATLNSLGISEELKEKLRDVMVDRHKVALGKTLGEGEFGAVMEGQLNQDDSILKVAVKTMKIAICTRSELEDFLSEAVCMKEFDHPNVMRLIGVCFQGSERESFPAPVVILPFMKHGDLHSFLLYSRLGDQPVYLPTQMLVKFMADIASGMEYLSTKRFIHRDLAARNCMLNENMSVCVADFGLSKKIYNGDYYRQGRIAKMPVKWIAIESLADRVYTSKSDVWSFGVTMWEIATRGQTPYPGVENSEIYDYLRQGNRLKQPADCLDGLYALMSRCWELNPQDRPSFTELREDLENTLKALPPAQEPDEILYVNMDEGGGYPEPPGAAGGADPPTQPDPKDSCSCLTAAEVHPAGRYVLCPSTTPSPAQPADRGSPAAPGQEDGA
The experiment in a line: In vitro Axl kinase assay (AlphaScreen), Test (a). The class given is biochemical. The following applies: for % Axl tyrosine kinase inhibition at 1 μM concentration / inhibition at 1 µM: test compound at 1 μM, first value quoted; for inhibition at 1 µM: read-out: % Axl tyrosine kinase inhibition at 1 μM concentration; for IC50: Test (a), read-out: IC50 versus Axl tyrosine kinase. (In Alpha technology, singlet oxygen from a donor bead excites a nearby acceptor bead.)

Test [2] has as its target T2, Axl expressed on NCI H1299 lung large cell carcinoma cells (Homo sapiens, UniProt P30530).
T2 sequence (P30530 26-894): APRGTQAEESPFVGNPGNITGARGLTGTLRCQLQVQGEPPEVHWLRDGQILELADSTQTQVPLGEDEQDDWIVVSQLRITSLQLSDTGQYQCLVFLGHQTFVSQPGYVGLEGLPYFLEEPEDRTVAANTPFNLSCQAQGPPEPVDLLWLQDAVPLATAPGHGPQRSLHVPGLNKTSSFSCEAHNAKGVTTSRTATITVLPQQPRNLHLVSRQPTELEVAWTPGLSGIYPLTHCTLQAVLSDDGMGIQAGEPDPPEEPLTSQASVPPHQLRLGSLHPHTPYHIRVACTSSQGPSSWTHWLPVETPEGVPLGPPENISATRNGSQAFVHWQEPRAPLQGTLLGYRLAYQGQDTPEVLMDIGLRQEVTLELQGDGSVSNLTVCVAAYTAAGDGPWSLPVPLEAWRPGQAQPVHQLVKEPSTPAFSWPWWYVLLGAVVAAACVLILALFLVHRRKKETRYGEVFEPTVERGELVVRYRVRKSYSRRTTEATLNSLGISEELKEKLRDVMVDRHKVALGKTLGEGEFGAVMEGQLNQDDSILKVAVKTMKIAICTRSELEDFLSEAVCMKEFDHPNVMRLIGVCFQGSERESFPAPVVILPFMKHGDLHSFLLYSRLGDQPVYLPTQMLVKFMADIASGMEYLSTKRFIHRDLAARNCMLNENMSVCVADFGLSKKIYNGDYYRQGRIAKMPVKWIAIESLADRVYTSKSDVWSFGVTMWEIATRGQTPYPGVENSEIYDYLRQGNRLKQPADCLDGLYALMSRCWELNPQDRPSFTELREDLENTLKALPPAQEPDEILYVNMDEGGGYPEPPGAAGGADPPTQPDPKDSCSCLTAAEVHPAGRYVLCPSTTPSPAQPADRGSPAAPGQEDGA
The experiment in a line: Cellular phospho-Axl ELISA assay, Test (b). On the technique in general: In an ELISA, binding on a coated surface is turned into a signal by an enzyme label.
Protocol: This assay uses a conventional ELISA method to determine the ability of test compounds to inhibit phosphorylation of tyrosine residues in Axl.
100 μl Aliquots were seeded into each of the wells of a clear 96 well tissue culture plate and the plates were incubated overnight at 37° C. with 5% CO2 to allow the cells to adhere to the wells.
Aliquots of each compound concentration were added to the cells in each well using the Echo 550 (Labcyte Inc., Sunnyvale, Calif., US). Control cells received DMSO only. The cells were incubated for 2 hours at 37° C. with 5% CO2.
The resultant tissue culture plates were incubated on ice for 30 minutes to ensure full lysis.
The wells were washed 3 times with 250 μl per well of PBS containing 0.05% v/v Tween (PBS/T). The wells were treated with 3% w/v BSA in PBS at ambient temperature for 2 hours and subsequently washed 3 times with 250 μl per well of PBS/T.
50 μl Aliquots of the NCI H1299 cell lysates were added to the ELISA plates.
100 μl Aliquots of substrate solution were added to each of the wells and fluorescence was read on a Tecan Ultra plate reader (Tecan UK Ltd., Reading, Berkshire, UK).

Setting [3] is: read-out: IC50 versus cellular phospho-Axl, Test (b), footnotes of Table A.
Where [4] appears, read: read-out: IC50 versus cellular phospho-Axl, Test (b), NCI H1299 cells stimulated with GAS6.

Where two headings read alike, the source gives them in different places.

What is called IC50 is the concentration that inhibits the measured activity by half. Consider `Nc1ncc(-c2ccc(C3CCNCC3)cc2)cc1-c1nc2ccccc2o1` [Example 2.18], for which the “% Axl tyrosine kinase inhibition at 1 μM concentration” value (shortened to “% Axl tyrosine kinase inhibition”) in test [1] was “^#99.8%”. Also, the IC50 in test [2] (setting [3]) is ~70 nM.

In the case of `Nc1ncc(-c2cnn(C3CCNCC3)c2)cc1-c1nc2ccccc2s1` [Example 14, 3-(1,3-Benzothiazol-2-yl)-5-[1-(4-piperidyl)pyrazol-4-yl]pyridin-2-amine], the inhibition at 1 µM in test [1] was 99.9%. Further, the 50% inhibitory concentration (IC50) in test [2] is ~101 nM.

Consider `Cc1nn(C2CCNCC2)cc1-c1cnc(N)c(-c2nc3ccccc3o2)c1` [Example 22, 3-(1,3-benzoxazol-2-yl)-5-[3-methyl-1-(4-piperidyl)pyrazol-4-yl]pyridin-2-amine], for which, in test [1], the concentration for half-maximal inhibition (IC50) was ~0.4 nM and the inhibition at 1 µM was 100%. Besides, in test [2], the IC50 is ~16 nM.

As for `CN1CCC(n2cc(-c3cnc(N)c(-c4nc5ncc(F)cc5o4)c3)cn2)CC1` [Example 41.7], in test [2] (setting [3]), the IC50 is ~234 nM.

As for `CN1CCC(n2cc(-c3cnc(N)c(-c4nc5ccccc5o4)c3)c(CO)n2)CC1` [Example 41.19], in test [1], the IC50 is ~0.8 nM and the “% Axl tyrosine kinase inhibition” value was 100.0%. For the same compound, in test [2] (setting [4]), the 50% inhibitory concentration (IC50) was ~7 nM.

Take `COCc1nn(C2CCN(C)CC2)cc1-c1cnc(N)c(-c2nc3ccccc3o2)c1` [Example 41.26]: in test [1], the half-maximal inhibitory concentration (IC50) was ~0.3 nM and the “% Axl tyrosine kinase inhibition” value amounted to 100.0%. The IC50 in test [2] (setting [4]) was ~3 nM.

On to `Cc1nn(C2CCNCC2)cc1-c1cnc(N)c(-c2nc3c(C#N)cccc3o2)c1` [Example 62.11], for which the “% Axl tyrosine kinase inhibition” value in test [1] is on record as 99.8%.

As for `COc1cccc2nc(-c3cc(-c4cn(C5CCNCC5)nc4CO)cnc3N)oc12` [Example 62.13], in test [1], the “% Axl tyrosine kinase inhibition” value amounted to 100.0%.

For `COCc1nn(C2CCNCC2)cc1-c1cnc(N)c(-c2nc3cccc(OC)c3o2)c1` [Example 62.14], in test [1], the IC50 was ~0.1 nM and the “% Axl tyrosine kinase inhibition” value is 100.0%.

In the case of `COc1cccc2nc(-c3cc(-c4cn(C5CCNCC5)nc4C)cnc3N)oc12` [Example 62.15], the “% Axl tyrosine kinase inhibition” value in test [1] is given as 100.0%.

In the case of `CNCc1nn(C2CCN(C(C)=O)CC2)cc1-c1cnc(N)c(-c2nc3ccccc3o2)c1` [Example 63, 1-[4-[4-[6-amino-5-(1,3-benzoxazol-2-yl)-3-pyridyl]-3-(methylaminomethyl)pyrazol-1-yl]-1-piperidyl]ethanone], the inhibition at 1 µM in test [1] stood at 98.4%.

As to `CN1CCC(n2cc(-c3cnc(N)c(-c4nc5cccc(C#N)c5o4)c3)cn2)CC1` [Example 64, 2-[2-amino-5-[1-(1-methyl-4-piperidyl)pyrazol-4-yl]-3-pyridyl]-1,3-benzoxazole-7-carbonitrile], in test [1], the inhibition at 1 µM worked out at 99.1%.

In the case of `CN1CCC(n2cc(-c3cnc(N)c(-c4nc5cccc(CO)c5o4)c3)cn2)CC1` [Example 65, [2-[2-amino-5-[1-(1-methyl-4-piperidyl)pyrazol-4-yl]-3-pyridyl]-1,3-benzoxazol-7-yl]methanol], in test [1], the inhibition at 1 µM was determined as 100%.

Regarding `COCc1nn(C2CCN(C(=O)CO)CC2)cc1-c1cnc(N)c(-c2nc3ccccc3o2)c1` [Example 66, 1-[4-[4-[6-amino-5-(1,3-benzoxazol-2-yl)-3-pyridyl]-3-(methoxymethyl)pyrazol-1-yl]-1-piperidyl]-2-hydroxy-ethanone], in test [1], the IC50 was ~0.6 nM and the inhibition at 1 µM was found to be 100%.

On to `COCc1nn(C2CCN(C(=O)[C@H](C)O)CC2)cc1-c1cnc(N)c(-c2nc3ccccc3o2)c1` [Example 67.1], for which, in test [1], the half-maximal inhibitory concentration (IC50) was ~0.7 nM and the “% Axl tyrosine kinase inhibition” value worked out at 100.0%.

Consider `C[C@H](O)C(=O)N1CCC(n2cc(-c3cnc(N)c(-c4nc5ccccc5o4)c3)c(CO)n2)CC1` [Example 67.2], for which the “% Axl tyrosine kinase inhibition” value in test [1] came to 100.0%.

As to `CNC(=O)CN1CCC(n2cc(-c3cnc(N)c(-c4nc5ccccc5o4)c3)c(COC)n2)CC1` [Example 68, 2-[4-[4-[6-amino-5-(1,3-benzoxazol-2-yl)-3-pyridyl]-3-(methoxymethyl)pyrazol-1-yl]-1-piperidyl]-N-methyl-acetamide], the inhibition at 1 µM in test [1] was determined as 100%.

Turning to `CN(C)C(=O)CN1CCC(n2cc(-c3cnc(N)c(-c4nc5ccccc5o4)c3)c(CO)n2)CC1` [Example 69, 2-[4-[4-[6-amino-5-(1,3-benzoxazol-2-yl)-3-pyridyl]-3-(hydroxymethyl)pyrazol-1-yl]-1-piperidyl]-N,N-dimethyl-acetamide], the inhibition at 1 µM in test [1] was found to be 100%.

In the case of `CNC(=O)c1cccc2nc(-c3cc(-c4cnn(C5CCNCC5)c4)cnc3N)oc12` [Example 70, 2-[2-amino-5-[1-(4-piperidyl)pyrazol-4-yl]-3-pyridyl]-N-methyl-1,3-benzoxazole-7-carboxamide], the inhibition at 1 µM in test [1] stood at 99.9%.

Consider `COCc1nn(C2CCN(C(=O)CN(C)C)CC2)cc1-c1cnc(N)c(-c2nc3ccccc3o2)c1` [Example 71, 1-[4-[4-[6-amino-5-(1,3-benzoxazol-2-yl)-3-pyridyl]-3-(methoxymethyl)pyrazol-1-yl]-1-piperidyl]-2-dimethylaminoethanone], for which the inhibition at 1 µM in test [1] was 100%.

For `COCc1nn(C2CCN(CCO)CC2)cc1-c1cnc(N)c(-c2nc3ccccc3o2)c1` [Example 72, 2-[4-[4-[6-amino-5-(1,3-benzoxazol-2-yl)-3-pyridyl]-3-(methoxymethyl)pyrazol-1-yl]-1-piperidyl]ethanol], the inhibition at 1 µM in test [1] amounted to 100%.

For the origin of these results see US8017611B2, “Pyridine and pyrazine derivatives -083” (AstraZeneca AB, priority 2007, dated 2011).
